The values that follow come from patent US6897316B2, “Substituted 2-phenyl-4-quinolone-3-carboxylic acid compounds and their use as antitumor agents” (China Medical University, priority 2003, dated 2005).

Data set [1] has as its system lung cancer cell line (A-549). Description: Preliminary cytotoxicity screening against lung cancer cell line A-549 (SRB assay). The format is cell-based, human. The conditions noted are these: for IC50: Homo sapiens, A549, 50% reduction in absorbance at 562 nm relative to untreated cells, Table 1 (esters VII, acids IX), read-out: ED50 (cytotoxicity against A-549); for IC50 / ED50 (cytotoxicity against A-549): A-549, SRB assay; for ED50 (cytotoxicity against A-549): 50% reduction in absorbance at 562 nm, Table 2 (tromethamine salts X). The procedure: (§1) Compounds were assayed for in vitro cytotoxicity in a panel of human tumor cell lines at the School of Pharmacy, University of North Carolina at Chapel Hill, according to procedures described previously [Lee, K. H., Lin, Y. M., Wu, T. S., Zhang, D. C., Yamagishi, T., Hayashi, T., Hall, I. H., Chang, J. J., Wu, R. Y., Yang, T. H. The cytotoxic principles of Prunella vulgaris, Psychotria serpens, and Hyptis capitata: Ursolic acid and related derivatives. Planta Med. 1988, 54, 308-11; Boyd, M. R. Status of the National Cancer Institute preclinical antitumor drug discovery screen: implications for selection of new agents for clinical trial. Devita, V. T., Jr. Hellman, S., Rosenberg, S. A., Eds, J. B. Cancer: Principles and Practice of Oncology Update, 1989, 3: pp1-12, Lippincoft: Philadephia; Monks, A., Scudiero, D., Skehan, P., Shoemaker, R., Paull, K., Vistica, D., Hose, C., Langley, J., Cronise, P., Vaigro-Wolff, A., Gray-Goodrich, M., Campbell, H., Mayo, J., Boyd, M. Feasibility of a high-flux anticancer drug screen using a diverse panel of cultured human tumor cell lines. J. Natl. Cancer Inst. 1991, 83, 757-66.] The cell lines included human ovarian cancer (1A9), ileocecal carcinoma (HCT-8), lung carcinoma (A-549), glioblastoma (U-87-MG), bone (HOS), epidermoid carcinoma of the naynx (KB), P-gp-expressing epidermoid carcinoma of the nasopharynx (KB-VIN), and melanoma (SKMEL-2) cell line. The cytotoxic effects of each compound were obtained as EC50 values, which represent the molar drug concentrations required to cause 50% inhibition.
Preliminary screening of antitumor activity was based on the cytotoxicity tested in human long cancer (A-549) cell lines. […] Among 3-carboxylic acid derivatives (IX), the cytotoxicity was not remarkable when the m-position of 2-phenyl group was substituted by OCH3 group (IX-3, 7, 11). ED50 values were greater than 20 μg/mL. […] The antitumor activity was not good, if there was no substitution on the m-position of 2-phenyl group ([…]).
A general note: Sulforhodamine B stains cellular protein and so reports cell mass.

Data set [2] concerns melanoma (SK-MEL-2) cell line. Description: Activity against HTCL replication, SK-MEL-2. The format is cell-based, human. The conditions noted are these: mean ED50. How it is done:
as §1, with “The cell lines included human ovarian cancer (1A9), ileocecal carcinoma (HCT-8), lung carcinoma (A-549), glioblastoma (U-87-MG), bone (HOS), epidermoid carcinoma of the naynx (KB), P-gp-expressing epidermoid carcinoma of the nasopharynx (KB-VIN), and melanoma (SKMEL-2) cell line. The cytotoxic effects of each compound were obtained as EC50 values, which represent the molar drug concentrations required to cause 50% inhibition.” left out

Data set [3] deals with human ovarian cancer (IA9) cell line. Description: Activity against HTCL replication, IA9. The format is cell-based. The conditions noted are these: ovarian cancer IA9; mean ED50. How it is done:
as §1
Antitumor activity of compounds IX-8 and X-8 was further tested on the following 8 cancer cell lines: CAKI, HOS, KB, KB-VIN, SK-MEL-2, U87-MG, HCT-8 and IA9. […] It is worth mentioning that these two compounds were quite active against human ovarian cancer cells (IA9), which were known to have a high level of drug resistant P-glycoprotein. IC50 of compound IX-8 against these cancer cells is only 0.03 μg/mL. Thus, this compound is really worth developing, particular against drug resistant ovarian cancer.

The test system of data set [4] is bone (HOS) cell line. The experiment in a line: Activity against HTCL replication, HOS. The format is cell-based, human. The conditions noted are these: mean ED50. How it is done: as §1, with “The cell lines included human ovarian cancer (1A9), ileocecal carcinoma (HCT-8), lung carcinoma (A-549), glioblastoma (U-87-MG), bone (HOS), epidermoid carcinoma of the naynx (KB), P-gp-expressing epidermoid carcinoma of the nasopharynx (KB-VIN), and melanoma (SKMEL-2) cell line. The cytotoxic effects of each compound were obtained as EC50 values, which represent the molar drug concentrations required to cause 50% inhibition.” left out

Data set [5] relates to glioblastoma (U87-MG) cell line. The experiment in a line: Activity against HTCL replication, U87-MG. The format is cell-based, human. The conditions noted are these: mean ED50. How it is done:
as §1, with “The cell lines included human ovarian cancer (1A9), ileocecal carcinoma (HCT-8), lung carcinoma (A-549), glioblastoma (U-87-MG), bone (HOS), epidermoid carcinoma of the naynx (KB), P-gp-expressing epidermoid carcinoma of the nasopharynx (KB-VIN), and melanoma (SKMEL-2) cell line. The cytotoxic effects of each compound were obtained as EC50 values, which represent the molar drug concentrations required to cause 50% inhibition.” left out

Data set [6] concerns ileocecal carcinoma (HCT-8) cell line. The experiment in a line: Activity against HTCL replication, HCT-8. The conditions noted are these: mean ED50. It counts as cell-based, human. How it is done: as §1, with “The cell lines included human ovarian cancer (1A9), ileocecal carcinoma (HCT-8), lung carcinoma (A-549), glioblastoma (U-87-MG), bone (HOS), epidermoid carcinoma of the naynx (KB), P-gp-expressing epidermoid carcinoma of the nasopharynx (KB-VIN), and melanoma (SKMEL-2) cell line. The cytotoxic effects of each compound were obtained as EC50 values, which represent the molar drug concentrations required to cause 50% inhibition.” left out

Values after ≈ are worked out from the molar mass of the structure shown.

With `O=C(O)c1c(-c2cccc(F)c2)[nH]c2ccc(Cl)cc2c1=O` [IX-5, 3′-Fluoro-6-chloro-2-phenyl-4-quinolone-3-carboxylic acid], the melting point (commonly the temperature of the solid-liquid transition) was more than 300 °C. The IC50 in data set [1] was found to be 1.8 µg/mL (≈ 5.67 µM).

As for `O=C(O)c1c(-c2cccc(Cl)c2)[nH]c2ccc(Cl)cc2c1=O` [IX-6, 3′,6-Dichloro-2-phenyl-4-quinolone-3-carboxylic acid], the melting point was 260 °C (dec.). Besides, the IC50 in data set [1] was more than 20 µg/mL.

For the compound `COc1ccc2[nH]c(-c3cccc(Cl)c3)c(C(=O)O)c(=O)c2c1.NC(CO)(CO)CO` [Compound X-9, 3′-Chloro-6-methoxy-2-phenyl-4-quinolone-3-carboxylic acid tromethamine salt], the “ED50 (cytotoxicity against A-549)” value in data set [1] was 17.6 µg/mL.

`O=C(O)c1c(-c2cccc(F)c2)[nH]c2ccc(F)cc2c1=O` [IX-2, 3′,6-Difluoro-2-phenyl-4-quinolone-3-carboxylic acid]: the melting point was 272 °C (dec.). In data set [1], the IC50 came out at 0.5 µg/mL (≈ 1.66 µM).

As to `NC(CO)(CO)CO.O=C(O)c1c(-c2cccc(Cl)c2)[nH]c2ccc(F)cc2c1=O` [Compound X-1, 3′-Chloro-6-fluoro-2-phenyl-4-quinolone-3-carboxylic acid tromethamine salt], the “ED50 (cytotoxicity against A-549)” value in data set [1] came to 17.6 µg/mL.

Regarding `CCOC(=O)c1c(-c2cccc(OC)c2)[nH]c2ccc(OC)cc2c1=O` [VII-10, Ethyl 3′,6-dimethoxy-2-phenyl-4-quinolone-3-carboxylate], in data set [1], the IC50 was more than 20 µg/mL.

For the compound `O=C(O)c1c(-c2cccc(Cl)c2)[nH]c2ccc(F)cc2c1=O` [IX-1, 3′-Chloro-6-fluoro-2-phenyl-4-quinolone-3-carboxylic acid], the IC50 in data set [1] was 20 µg/mL (≈ 63 µM).

As for `COc1cccc(-c2[nH]c3ccc(Cl)cc3c(=O)c2C(=O)O)c1.NC(CO)(CO)CO` [Compound X-7, 3′-Methoxy-6-chloro-2-phenyl-4-quinolone-3-carboxylic acid tromethamine salt], the “ED50 (cytotoxicity against A-549)” value in data set [1] was more than 20 µg/mL.

For the compound “6-Methoxy-2-phenyl-4-quinolone-3-carboxylic acid tromethamine salt [Compound X-11]”, the “ED50 (cytotoxicity against A-549)” value in data set [1] is more than 20 µg/mL.

Compound `COc1cccc(-c2[nH]c3ccc(F)cc3c(=O)c2C(=O)O)c1` [IX-3, 6-Fluoro-3′-methoxy-2-phenyl-4-quinolone-3-carboxylic acid] registered a melting point of 231 °C. The IC50 in data set [1] is more than 20 µg/mL.

As for `COc1ccc2[nH]c(-c3cccc(Cl)c3)c(C(=O)O)c(=O)c2c1` [IX-9, 3′-Chloro-6-methoxy-2-phenyl-4-quinolone-3-carboxylic acid], the melting point was 223 °C (dec.). In data set [1], the IC50 stood at 20 µg/mL (≈ 60.7 µM).

Take `O=C(O)C1C(=O)c2cc(Cl)ccc2N=C1c1ccccc1` (centres unmarked) [IX-15, 6-Chloro-2-phenyl-4-quinolone-3-carboxylic acid]: the melting point was 254.2 to 255.6 °C (dec.).

`O=C(O)C1C(=O)c2cc3c(cc2N=C1c1ccccc1)OCO3` (centres unmarked) [IX-22, 6,7-Methylenedioxy-2-phenyl-4-quinolone-3-carboxylic acid]: the melting point is 267.5 to 269.2 °C (dec.).

Take `CCOC(=O)c1c(-c2cccc(Cl)c2)[nH]c2ccc(OC)cc2c1=O` [VII-9, Ethyl 3′-chloro-6-methoxy-2-phenyl-4-quinolone-3-carboxylate]: in data set [1], the IC50 is more than 20 µg/mL.

As for `NC(CO)(CO)CO.O=C(O)c1c(-c2cccc(F)c2)[nH]c2ccc(Cl)cc2c1=O` [Compound X-5, 3′-Fluoro-6-chloro-2-phenyl-4-quinolone-3-carboxylic acid tromethamine salt], the “ED50 (cytotoxicity against A-549)” value in data set [1] turned out to be 10.9 µg/mL.

In the case of `NC(CO)(CO)CO.O=C(O)c1c(-c2cccc(Cl)c2)[nH]c2ccc(Cl)cc2c1=O` [Compound X-6, 3′,6-Dichloro-2-phenyl-4-quinolone-3-carboxylic acid tromethamine salt], the “ED50 (cytotoxicity against A-549)” value in data set [1] is more than 20 µg/mL.

In turn, `COc1cccc(-c2[nH]c3ccc(OC)cc3c(=O)c2C(=O)O)c1` [IX-10, 3′,6-Dimethoxy-2-phenyl-4-quinolone-3-carboxylic acid] yielded a melting point of more than 300 °C. In addition, in data set [1], the IC50 was more than 20 µg/mL.

With `CCOC(=O)c1c(-c2cccc(OC)c2)[nH]c2ccc(Cl)cc2c1=O` [VII-7, Ethyl 3′-methoxy-6-chloro-2-phenyl-4-quinolone-3-carboxylate], the IC50 in data set [1] is more than 20 µg/mL.

Take `COc1ccc2c(c1)C(=O)C(C(=O)O)C(c1ccccc1)=N2` (centres unmarked) [IX-11, 6-Methoxy-2-phenyl-4-quinolone-3-carboxylic acid]: the melting point was more than 300 °C. The “cytotoxicity / antitumor activity in words” value in data set [1] (A-549, preliminary screening) was “not good”. Also, the IC50 in data set [1] is more than 20 µg/mL.

In the case of `NC(CO)(CO)CO.O=C(O)c1c(-c2cccc(F)c2)[nH]c2ccc(F)cc2c1=O` [Compound X-2, 3′,6-Difluoro-2-phenyl-4-quinolone-3-carboxylic acid tromethamine salt], in data set [1], the “ED50 (cytotoxicity against A-549)” value stood at 4.3 µg/mL.

For `COc1cccc(-c2[nH]c3ccc(Cl)cc3c(=O)c2C(=O)O)c1` [IX-7, 3′-Methoxy-6-chloro-2-phenyl-4-quinolone-3-carboxylic acid], the melting point was 243 °C (dec.). The IC50 in data set [1] is more than 20 µg/mL.

`O=C(O)C1C(=O)c2cc(F)ccc2N=C1c1ccccc1` (centres unmarked) [IX-4, 6-Fluoro-2-phenyl-4-quinolone-3-carboxylic acid] returned a melting point of 297 °C.

Turning to `COc1ccc2[nH]c(-c3cccc(F)c3)c(C(=O)O)c(=O)c2c1.NC(CO)(CO)CO` [Compound X-8, 3′-Fluoro-6-methoxy-2-phenyl-4-quinolone-3-carboxylic acid tromethamine salt], the “ED50 SK-MEL-2” value in data set [2] stood at 2.0 µg/mL. For the same compound, in data set [3], the “ED50 IA9” value amounted to 0.88 µg/mL. Besides, the “ED50 (cytotoxicity against A-549)” value in data set [1] was found to be 2.4 µg/mL. The “ED50 HOS” value in data set [4] amounted to 5.0 µg/mL. Also, the “ED50 U87-MG” value in data set [5] amounted to 5.0 µg/mL. For the same compound, the “ED50 HCT-8” value in data set [6] came to 1.20 µg/mL.

For `CCOC(=O)c1c(-c2cccc(F)c2)[nH]c2ccc(Cl)cc2c1=O` [VII-5, Ethyl 3′-fluoro-6-chloro-2-phenyl-4-quinolone-3-carboxylate], in data set [1], the IC50 is more than 20 µg/mL.
